Values quoted from earlier work in patent US20240100117A1, “NUTRITION-BASED METHOD FOR MANAGING ANIMAL BEHAVIOR” (Morgenstern & Associates, LLC, priority 2022, published 2024).

Columns and labels:
[1] = general reference values; at room temperature
[2] = test system: conversion of 5-HTP to serotonin; details: supplementation, primate animal models

| Structure (SMILES) | viscosity [1] | conversion of 5-HTP to serotonin [2] |
| --- | --- | --- |
| OCC(O)CO [glycerin] | about 950 cP |  |
| Cc1ncc(CO)c(CO)c1O [vitamin B6, pyridoxine] |  | increased the conversion of 5-HTP to serotonin |
| O [water] | about 1 cP |  |
